Reference: patent US11299487B2, “Compounds and compositions as modulators of TLR signaling” (Neuropore Therapies, Inc., priority 2019, dated 2022)

Experiments:
Format in all cases: cell-based
human TLR9 = biological target: T1, human TLR9 (Homo sapiens, UniProt Q9NR96); assay: HEK-Blue hTLR9 assay (SEAP reporter) with agonist ODN 2006; details: Table A; HEK-Blue hTLR9 cells, ~3×EC50 ODN 2006, 18 h; exact values 8-point dilutions, approximate (~ or <) 4-point dilutions; read-out: ~IC50 (μM) with ODN2006
T1 construct: host or cells: HEK-Blue hTLR9 (HEK-293)
T1 sequence (Q9NR96 26-1032): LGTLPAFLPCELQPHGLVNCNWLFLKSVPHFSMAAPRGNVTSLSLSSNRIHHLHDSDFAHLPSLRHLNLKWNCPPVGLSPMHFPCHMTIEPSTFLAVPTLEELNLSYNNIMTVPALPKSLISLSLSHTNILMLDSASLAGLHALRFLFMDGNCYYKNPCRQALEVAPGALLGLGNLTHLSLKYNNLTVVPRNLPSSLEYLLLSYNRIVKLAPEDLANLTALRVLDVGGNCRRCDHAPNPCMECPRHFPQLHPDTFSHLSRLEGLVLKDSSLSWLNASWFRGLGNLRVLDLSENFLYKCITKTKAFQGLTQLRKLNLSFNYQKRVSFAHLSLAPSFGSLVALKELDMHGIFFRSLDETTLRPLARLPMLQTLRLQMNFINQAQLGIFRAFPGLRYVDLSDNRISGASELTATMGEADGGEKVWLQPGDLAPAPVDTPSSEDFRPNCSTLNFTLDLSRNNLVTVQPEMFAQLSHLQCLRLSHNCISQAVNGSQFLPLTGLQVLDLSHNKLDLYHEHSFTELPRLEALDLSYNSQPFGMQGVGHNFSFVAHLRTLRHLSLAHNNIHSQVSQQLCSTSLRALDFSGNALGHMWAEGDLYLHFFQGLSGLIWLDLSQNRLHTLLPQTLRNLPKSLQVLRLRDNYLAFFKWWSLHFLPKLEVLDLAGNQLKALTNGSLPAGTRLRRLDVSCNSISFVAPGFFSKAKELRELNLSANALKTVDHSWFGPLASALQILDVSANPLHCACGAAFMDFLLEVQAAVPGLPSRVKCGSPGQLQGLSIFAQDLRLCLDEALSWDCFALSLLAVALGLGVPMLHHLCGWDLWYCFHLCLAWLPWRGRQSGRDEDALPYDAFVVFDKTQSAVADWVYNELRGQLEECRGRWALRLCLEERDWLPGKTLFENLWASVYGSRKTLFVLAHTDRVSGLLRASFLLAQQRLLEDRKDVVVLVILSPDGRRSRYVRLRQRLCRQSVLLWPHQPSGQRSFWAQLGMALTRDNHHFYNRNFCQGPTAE
Description: Synthetic ODNs (ODN 2006 (ODN7909), class B CpG oligonucleotide, TLR9 agonist) was obtained from InvivoGen and was dissolved in endotoxin-free water to a concentration 500 μM, vortexed until complete solubilization, and stored in aliquots at −20° C. Prior to addition to cells, an aliquot of the dissolved ligand was vortexed shortly and then was diluted in medium to 50 μM. The EC50 of the agonist for each assay run was determined by using 3-fold dilutions from the starting concentration 10 μM.
Test compounds were solubilized fresh to 10-20 mM stocks in DMSO and sonicated for 5-10 minutes in a water bath sonicator. Serial dilutions were prepared in DMSO, and then diluted in medium. The final concentration of DMSO used in the assay was 1%.
HEK-Blue hTLR9 reporter cells (InvivoGen) are HEK-293 cells stably expressing both the human TLR9 gene and a secreted embryonic alkaline phosphatase (SEAP) reporter construct downstream of NFκB promotor sites. HEK-Blue hTLR9 cells were cultured according to manufacturer's protocol using Dulbecco's Modified Eagle Medium (DMEM; Gibco) containing 1× GlutaMax (Gibco), 10% heat-inactivated Fetal Bovine Serum (Gibco), Pen-Strep (50 U/mL penicillin, 50 μg/mL streptomycin, Gibco), 100 μg/mL Normocin (InvivoGen), and the selective antibiotics, 10 μg/mL Blasticidin (InvivoGen), and 100 μg/mL Zeocin (InvivoGen). Quanti-Blue reagent (InvivoGen) for detection and quantification of secreted alkaline phosphatase was dissolved in 100 mL of endotoxin-free water, warmed to 37° C. for 30 minutes and then filtered using a 0.2 μm membrane.
On day 1, 50 μL of each test compound dilution in duplicates or a vehicle control was added to each well of a 96-well plate followed by addition of 150 μL of HEK-Blue hTLR9 cell suspension (1×10^5 cells/well) and incubated at 37° C./5% CO2 for 2 h. Next, 50 μL of an approximate 3×EC50 concentration of TLR9 agonist, ODN 2006, was added to the wells containing test compounds or the vehicle control. The plates were then incubated at 37° C./5% CO2 for 18 h. For each assay run, vehicle-treated HEK-Blue hTLR9 cells were treated with serial dilutions of agonist to determine EC50 values for the respective run.
On day 2, secreted alkaline phosphatase (SEAP) activity was detected in cell culture supernatants. In brief, 30 μL was collected from each well and transferred to a 96-well plate. Next, 200 μL of Quanti-Blue detection reagent was added to each well. Plates were incubated at 37° C. for 60 min. and SEAP activity was assessed by spectrophotometer OD reading at 655 nm. Table A and Table B show the activities of the compounds tested in HEK-Blue hTLR9 cells against ODN 2006. The activities of the compounds against ODN 2006 are presented as IC50 values which were defined as concentrations of the compounds where percent inhibition of the signal induced by agonist is equal to 50. Exact IC50 values were calculated based on 8-point dilutions for each compound. Approximate IC50 values (˜ or <) were calculated based on 4-point dilutions for each compound.

human TLR2 [1] = biological target: T2, human TLR2 (Homo sapiens, UniProt O60603); assay: HEK-Blue hTLR2 antagonism assay (SEAP reporter) with agonist Pam2CSK4 (TLR2/6 agonist); details: HEK-Blue hTLR2 cells, ~3×EC50 Pam2CSK4, 18 h, SEAP OD 655 nm, 8-point dilutions
T2 construct: host or cells: HEK-Blue hTLR2 (HEK-293)

human TLR2 [2] = biological target: T2, human TLR2; assay: HEK-Blue hTLR2 antagonism assay (SEAP reporter) with agonist Pam3CSK4 (TLR1/2 agonist); details: HEK-Blue hTLR2 cells, ~3×EC50 Pam3CSK4, 18 h, SEAP OD 655 nm, 8-point dilutions

T2 sequence (O60603 21-784): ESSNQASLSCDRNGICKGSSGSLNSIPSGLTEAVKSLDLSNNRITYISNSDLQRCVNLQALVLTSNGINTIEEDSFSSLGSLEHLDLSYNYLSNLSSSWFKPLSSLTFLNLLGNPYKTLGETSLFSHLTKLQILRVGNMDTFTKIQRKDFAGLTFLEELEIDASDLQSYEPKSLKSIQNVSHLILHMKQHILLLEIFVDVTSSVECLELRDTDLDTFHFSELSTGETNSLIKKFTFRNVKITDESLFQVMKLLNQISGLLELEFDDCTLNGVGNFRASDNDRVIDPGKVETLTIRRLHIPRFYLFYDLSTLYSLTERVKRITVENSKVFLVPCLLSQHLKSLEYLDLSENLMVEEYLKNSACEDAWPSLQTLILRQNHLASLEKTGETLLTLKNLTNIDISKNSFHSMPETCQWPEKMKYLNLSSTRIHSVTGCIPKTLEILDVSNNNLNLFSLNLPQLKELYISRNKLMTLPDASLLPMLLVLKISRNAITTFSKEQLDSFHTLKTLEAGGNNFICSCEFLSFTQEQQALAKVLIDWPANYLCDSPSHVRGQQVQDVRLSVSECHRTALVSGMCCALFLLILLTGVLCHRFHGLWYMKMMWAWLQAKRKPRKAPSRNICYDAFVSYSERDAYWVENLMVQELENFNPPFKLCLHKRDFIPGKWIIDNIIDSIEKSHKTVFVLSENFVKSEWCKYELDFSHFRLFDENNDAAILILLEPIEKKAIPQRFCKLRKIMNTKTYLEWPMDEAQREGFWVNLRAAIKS

Row | IC50 (human TLR9) [µM] | IC50 (human TLR2 [1]; Table A) [µM] | IC50 (human TLR2 [2]; Table A) [µM] | IC50 (human TLR2 [1]; Table B) [µM] | IC50 (human TLR2 [2]; Table B) [µM] | Compound
1 | ~2 | 2.2 | 0.9 |  |  | COc1cc(-c2cnn(-c3ccccc3)c2)cc(C=O)c1O [Compound A1, 2-hydroxy-3-methoxy-5-(1-phenyl-1H-pyrazol-4-yl)benzaldehyde]
2 | > 33 | > 100 | > 100 |  |  | COc1cc(-c2cnn(CCN3CCOCC3)c2)cc(C=O)c1O [Compound A2, 2-hydroxy-3-methoxy-5-(1-(2-morpholinoethyl)-1H-pyrazol-4-yl)benzaldehyde]
3 | > 33 | 36.8 | 42.3 |  |  | COCCCn1cc(-c2cc(C=O)c(O)c(OC)c2)cn1 [Compound A7, 2-hydroxy-3-methoxy-5-(1-(3-methoxypropyl)-1H-pyrazol-4-yl)benzaldehyde]
4 | > 33 | 85.5 | > 100 |  |  | COc1cc(-c2cnn(Cc3ccccn3)c2)cc(C=O)c1O [Compound A8, 2-hydroxy-3-methoxy-5-(1-(pyridin-2-ylmethyl)-1H-pyrazol-4-yl)benzaldehyde]
5 | > 33 | > 100 | > 100 |  |  | Cc1cc(-c2cnn(-c3ccccc3)c2)cc(C#N)c1O [Compound A12, 2-hydroxy-3-methyl-5-(1-phenyl-1H-pyrazol-4-yl)benzonitrile]
6 | > 33 | 45.7 | 39.7 |  |  | Oc1cc(-c2cnn(-c3ccccc3)c2)cc(F)c1F [Compound A13, 2,3-difluoro-5-(1-phenyl-1H-pyrazol-4-yl)phenol]
7 | > 33 | 42.2 | 42.6 |  |  | Cc1cc(-c2cnn(-c3ccccc3)c2)cc(O)c1F [Compound A14, 2-fluoro-3-methyl-5-(1-phenyl-1H-pyrazol-4-yl)phenol]
8 | > 33 | > 100 | > 100 |  |  | Oc1c(F)cc(-c2cnn(-c3ccccc3)c2)cc1Cl [Compound A15, 2-chloro-6-fluoro-4-(1-phenyl-1H-pyrazol-4-yl)phenol]
9 | > 33 | > 100 | > 100 |  |  | COc1cc(-c2cnn(-c3ccccc3)c2)cc(O)c1F [Compound A16, 2-fluoro-3-methoxy-5-(1-phenyl-1H-pyrazol-4-yl)phenol]
10 | < 1.2 | 0.5 | 0.5 |  |  | O=Cc1cc(-c2cnn(-c3ccc(N4CCCC4)cc3)c2)cc(F)c1O [Compound A19, 3-fluoro-2-hydroxy-5-(1-(4-(pyrrolidin-1-yl)phenyl)-1H-pyrazol-4-yl)benzaldehyde]
11 | > 10 | 0.9 | 0.9 |  |  | O=Cc1cc(-c2cnn(-c3cccc(N4CCCC4)c3)c2)cc(F)c1O [Compound A22, 3-fluoro-2-hydroxy-5-(1-(3-(pyrrolidin-1-yl)phenyl)-1H-pyrazol-4-yl)benzaldehyde]
12 | ~3 | 1.9 | 1.2 |  |  | COc1cc(-c2ccn(-c3ccccc3)n2)cc(C=O)c1O [Compound A25, 2-hydroxy-3-methoxy-5-(1-phenyl-1H-pyrazol-3-yl)benzaldehyde]
13 | ~3 | 2.9 | 2.7 |  |  | O=Cc1cc(-c2ccn(-c3ccccc3)n2)cc(F)c1O [Compound A26, 3-fluoro-2-hydroxy-5-(1-phenyl-1H-pyrazol-3-yl)benzaldehyde]
14 | < 1.2 | 0.9 | 0.8 |  |  | O=Cc1cc(-c2ccn(-c3ccc(N4CCCC4)cc3)n2)cc(F)c1O [Compound A27, 3-fluoro-2-hydroxy-5-(1-(4-(pyrrolidin-1-yl)phenyl)-1H-pyrazol-3-yl)benzaldehyde]
15 | ~4 | 4 | 3.6 |  |  | CN1CCN(/N=C/c2cc(-c3ccn(-c4ccccc4)n3)cc(F)c2O)CC1 [Compound A33, (E)-2-fluoro-6-(((4-methylpiperazin-1-yl)imino)methyl)-4-(1-phenyl-1H-pyrazol-3-yl)phenol]
16 | 0.1 | 0.4 | 0.3 |  |  | O=Cc1cc(-n2cc(-c3ccc(N4CCCC4)cc3)nn2)cc(F)c1O [Compound A42, 3-fluoro-2-hydroxy-5-(4-(4-(pyrrolidin-1-yl)phenyl)-1H-1,2,3-triazol-1-yl)benzaldehyde]
17 | < 1.2 | 1.1 | 1.1 |  |  | O=Cc1cc(-c2cn(-c3ccc(N4CCCC4)cc3)nn2)cc(F)c1O [Compound A43, 3-fluoro-2-hydroxy-5-(1-(4-(pyrrolidin-1-yl)phenyl)-1H-1,2,3-triazol-4-yl)benzaldehyde]
18 | ~1.2 | 1 | 0.7 |  |  | O=Cc1cc(-n2cc(-c3cccc(N4CCCC4)c3)nn2)cc(F)c1O [Compound A44, 3-fluoro-2-hydroxy-5-(4-(3-(pyrrolidin-1-yl)phenyl)-1H-1,2,3-triazol-1-yl)benzaldehyde]
19 | < 1.2 | 2.3 | 1.3 |  |  | O=Cc1cc(-c2cn(-c3ccc(N4CCCC4)cc3)cn2)cc(F)c1O [Compound A47, 3-fluoro-2-hydroxy-5-(1-(4-(pyrrolidin-1-yl)phenyl)-1H-imidazol-4-yl)benzaldehyde]
20 |  |  |  | 0.6 | 0.5 | CC1(C)CN(c2ccc(NC(=O)c3cc(F)c(O)c(C=O)c3)cn2)c2ccc(F)cc21 [Compound B99, 3-fluoro-N-(6-(5-fluoro-3,3-dimethylindolin-1-yl)pyridin-3-yl)-5-formyl-4-hydroxybenzamide]
21 |  |  |  | 2 | 1 | O=Cc1cc(C(=O)Nc2ccc(N3CCN(c4ccccc4)CC3)nc2)cc(F)c1O [Compound B102, 3-fluoro-5-formyl-4-hydroxy-N-(6-(4-phenylpiperazin-1-yl)pyridin-3-yl)benzamide]
22 |  |  |  | 1.7 | 1 | O=Cc1cc(C(=O)Nc2ccc(N3C[C@H]4CCC[C@H]4C3)nc2)cc(F)c1O [Compound B103, 3-fluoro-5-formyl-N-(6-((3aR,6aS)-hexahydrocyclopenta[c]pyrrol-2(1H)-yl)pyridin-3-yl)-4-hydroxybenzamide]
